Measured values from patent US20080139668A1, “PHARMACEUTICAL COMPOSITION FOR OBOVATOL FOR THE PREVENTION AND TREATMENT OF RESTENOSIS” (Korea Research Institute of Bioscience and Biotechnology, priority 2006, published 2008).

Columns and labels:
injured carotid artery [1] = experiment: Carotid artery angiography in the rat carotid artery balloon injury model; type: in vivo; settings: 100 μg obovatol in 100 μL pluronic gel, topical to injured carotid artery; 14 days after arteriotomy; mean±S.E.; control 0.63±0.12; p<0.01
Experimental: A 4F vascular cannula (Cook, USA) was inserted into the ventral aorta and the catheter was advanced toward the head to a locus as close as possible to a branch between the common carotid arteryand the transverse aorta. After the injection of a contrast media (Visipaque™, Amersham Health, Cork, Ireland), mean luminal diameters (MLD) were measured using computerized coronary angiography (DCI Videodensitometry, Phillips, Netherlands)(See FIG. 1˜FIG. 8).
They were measured for the inner diameter of the carotid artery using a 5F coronary catheter, and the mean value thereof was used as a control.

[2] = test system: arterial smooth muscle cells; experiment: Inhibition of PDGF-induced arterial smooth muscle cell proliferation (cell count); type: cell-based, rat; settings: obovatol 1, 3, 5 μM; 50 ng/ml PDGF-BB; 24, 48, 72 hours; FIG. 9
Experimental: Obovatol was examined for inhibitory activity against the proliferation of arterial smooth muscle cells in rats. Arterial smooth muscle cells were plated at a density of 3.0×10^4 cells/well onto 12-well plates containing a DMEM medium supplemented with 0.5% (V/V) fetal bovine serum, and incubated for 24 hours After the addition of obovatol (1, 3, and 5 μM) to the plates, the cells were incubated for 24 hours. Treatment with 50 ng/ml of platelet-derived growth factor (PDGF-BB, Sigma Chem. Co., USA) was followed by incubation for 24, 48, and 72 hours. Thereafter, the cells were trypsinized and counted using a cell counter.

[3] = test system: arterial smooth muscle cells; experiment: Inhibition of DNA synthesis ([3H] thymidine) in PDGF-treated arterial smooth muscle cells; type: cell-based, rat; settings: obovatol 1, 3, 5 μM, FIG. 10
Experimental: Arterial smooth muscle cells were cultured in the same manner as in Example 4, with the exception that the cells were cultured for 20 hours after treatment with platelet-derived growth factor, and then cultured for 4 hours in the presence of 1 μl of [3H] thymidine. The cultured cells were washed with PBS and incubated with 500 μl of TCA (trichloroacetic acid) for 30 min. After the removal of TCA, the cells were washed with a mixture of 1:1 ethanol:ether (v/v) and disrupted with 500 μl of NaOH. The cell lysate was mixed with 5 ml of a scintillation cocktail and measured for radioactivity to analyze relative amounts of newly synthesized DNA. FIG. 10 is a graph in which amounts of newly synthesized DNA in PDGF-treated arterial smooth muscle cells are plotted against concentrations of obovatol.

[4] = test system: arterial smooth muscle cells; experiment: Cell cycle of arterial smooth muscle cells; type: cell-based
ICR mice = experiment: Acute toxicity assay in mice; type: in vivo, mouse; settings: abdominal injection 1000, 100, 10 mg/kg
Experimental: (§1) ICR mice (weighing 25±5 g) and SPF Sprague-Dawley rats (weighing 235±10 g) were separately divided into four groups of three and abdominally injected with the obovatol prepared in Example 2 at doses of 1000 mg/kg, 100 mg/kg, and 10 mg/kg and monitored for toxicity over 24 hours.

SPF Sprague-Dawley rats = experiment: Acute toxicity assay in rats; type: in vivo, rat; settings: abdominal injection 1000, 100, 10 mg/kg
Experimental: as §1

injured carotid artery [5] = test system: injured carotid artery
Experimental: For the topical application of obovatol in vivo, pluronic gel was employed. F-127 pluronic gel (Sigma Chemical Company, Germany) was dissolved in cold, deionized water to give 40% gel one day before the experiment, and was allowed to stand at 4° C. for 12 hours to dissolve powdered F-127 pluronic gel completely. On the day of the experiment, obovatol was dissolved in a concentration of 10 μg/μL in 100% ethanol and 10 μL of the obovatol solution (10 μg/μL) was mixed with 90 μL of the 40% F-127 pluronic gel to afford 100 μL of obovatol-pluronic gel, comprising 100 μg of obovatol. A control was prepared in the same manner except that no obovatol was contained therein.
After rats were anaesthetized by abdominal injection with ketamine (50 mg/kg) and xylazine (6.7 mg/kg) and incised to expose the common carotid artery, the external carotid artery and the internal carotid artery were exteriorized through a ventral right line neck incision. While blood flow was temporarily halted by occluding the artery with microvascular clamps (Acland, S&T, Switzerland) at the proximal region of the common carotid artery and the distal region of the internal carotid artery, arteriotomy was performed on the external carotid artery. A 2F Fogarty arterial embolectomy catheter (Baxter Healthcare Corporation, USA) was inserted into the lumen of the right common carotid artery through the incised region and the balloon was inflated to a size larger than the diameter of the common carotid artery so as to generate slight arterial wall resistance. The catheter was advanced a predetermined distance and then withdrawn. This procedure was repeated a total of three times to induce endothelial denudation, after which the catheter (the balloon?) was removed from the arterial lumen. Then, the microvascular clamps were removed to allow blood to flow through the artery. Secretions and blood were completely removed from the exterior of the carotid artery before the obovatol-pluronic gel or the obovatol-lacking pluronic gel were topically applied in an amount of 100 μL to upper loci of the carotid artery, followed by ligation of the artery with a suture. Two weeks after the arteriotomy, a carotid artery angiography was conducted and a carotid artery sample was taken and analyzed histopathologically.

[6] = 100 μg obovatol in pluronic gel, topical, two weeks after injury, control 0.18 ± 0.06, P < 0.05

Substance: obovatol
- inner diameter of carotid artery (mean luminal diameter) (injured carotid artery [1]): 0.78±0.06 mm
- growth of arterial smooth muscle cells (cell count) [2]: inhibitory of the growth of arterial smooth muscle cells
- DNA synthesis ([3H] thymidine incorporation) [3]: decreases with the increasing concentration of obovatol
- proportion of cells in resting state (G0/G1) of the cell cycle [4]: increased the proportion of cells in a resting state (G0/G1)
- abnormality (body weight, food intake, etc.) (ICR mice; 24 hours): no abnormality observed in any of the animals
- death (ICR mice; monitored 24 hours): Death was observed in none of the four groups
- abnormality (body weight, food intake, etc.) (SPF Sprague-Dawley rats; 24 hours): no abnormality observed in any of the animals
- death (SPF Sprague-Dawley rats; monitored 24 hours): Death was observed in none of the four groups
- Medial Area (mm^2) (injured carotid artery [5]; 100 μg obovatol in pluronic gel, topical, two weeks after injury, control 0.12 ± 0.02, P > 0.05): 0.11 ± 0.10 mm^2
- Intimal Area (mm^2) (injured carotid artery [5]; [6]): 0.13 ± 0.03 mm^2
- Intimal Thickness (mm) (injured carotid artery [5]; [6]): 0.23 ± 0.02 mm
- Intimal-Medial Area Ratio (injured carotid artery [5]; 100 μg obovatol in pluronic gel, topical, two weeks after injury, control 1.54 ± 0.48, P < 0.05): 1.12 ± 0.23
- Stenosis (%) (injured carotid artery [5]; 100 μg obovatol in pluronic gel, topical, two weeks after injury, control 50.10 ± 13.25, P < 0.01): 34.94 ± 7.23%
- cytotoxicity inferred from similar medial thickness to control (injured carotid artery [5]; rat, in vivo): no cytotoxicity
